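Cells were grown in 96-well plates and exposed to each compound for 48 hours at five concentrations; endpoints were interpolated linearly between bracketing concentrations, or set to the highest concentration if not reached. Here, GI50 denotes the concentration required for 50% inhibition of growth. The concentration for full growth arrest is given as TGI.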
Columns and labels:
Assay in all cases: inhibition of tumour cell growth, NCI panel, 48 h
NCI-H23 lung = test system: NCI-H23 lung
UACC-62 melanoma = test system: UACC-62 melanoma
NCI-H460 lung = test system: NCI-H460 lung
SR leukemia = test system: SR leukemia
A498 renal = test system: A498 renal
BT-549 breast = test system: BT-549 breast
HL-60(TB) leukemia = test system: HL-60(TB) leukemia
UACC-257 melanoma = test system: UACC-257 melanoma
NCI-H522 lung = test system: NCI-H522 lung
SF-268 CNS = test system: SF-268 CNS

Row | SMILES | TGI (NCI-H23 lung) [µM] | TGI (UACC-62 melanoma) [µM] | TGI (NCI-H460 lung) [µM] | TGI (SR leukemia) [µM] | TGI (A498 renal) [µM] | TGI (BT-549 breast) [µM] | TGI (HL-60(TB) leukemia) [µM] | TGI (UACC-257 melanoma) [µM] | TGI (NCI-H522 lung) [µM] | TGI (SF-268 CNS) [µM] | GI50 (NCI-H23 lung) [µM] | GI50 (UACC-62 melanoma) [µM] | GI50 (NCI-H460 lung) [µM] | GI50 (SR leukemia) [µM] | GI50 (A498 renal) [µM] | GI50 (BT-549 breast) [µM] | GI50 (HL-60(TB) leukemia) [µM] | GI50 (UACC-257 melanoma) [µM] | GI50 (NCI-H522 lung) [µM] | GI50 (SF-268 CNS) [µM]
1 | O=C(/C=C/c1ccc(OCC(=O)N2CCN(c3ccccc3)CC2)cc1)c1ccc(Cl)cc1 | > 100 | > 95.7 | > 100 | > 100 | 60.3 | > 85.6 | > 100 | > 100 | > 100 | > 92.7 |  |  |  |  |  |  |  |  |  | 
2 | CC1=C([Se]CC(OC(=O)CC[Se]c2ccccc2)C(=O)NCCCCCC(=O)OCc2ccccc2)C(=O)c2ccccc2C1=O (stereo not drawn) | 5.53 | 4.39 | 5.34 | 17.2 | 8.48 | 12.2 | 8.25 | 7.9 | 6.16 | 6.31 | 2 | 1.83 | 1.78 | 3.38 | 2.25 | 2.99 | 2.75 | 2.78 | 2.28 | 2.5
3 | O=c1cccc(C#CC#C[C@H]2O[C@@H]2CO)o1 | 1.21 | 0.531 | 6.74 | > 100 | 4.34 | 3.02 | > 100 | 2.91 | > 100 | 7.51 | 0.347 | 0.209 | 1.08 | 0.24 | 2.03 | 1.19 | 1.47 | 1.16 | 3.56 | 2.49
4 | CCCC[C@H]1C(=O)O[C@H](C)[C@H](NC(=O)c2cccc(NC=O)c2O)C(=O)O[C@@H](C)[C@@H]1OC(=O)CC(C)C | 31.2 | 22.1 | 27.4 | 38.3 | 30 | 36 | 34.2 | 69.6 | 31.6 | 35.5 |  |  |  |  |  |  |  |  |  | 
5 | C(=N\Nc1ccccn1)/c1ccccn1 | > 100 | 2.28 | 3.98 | > 100 |  | > 100 | 2.53 |  | > 100 | > 23.4 | 0.503 | 0.327 | 0.321 | 0.367 | 0.273 | 1.62 | 0.272 | 0.453 | 0.71 | 0.309
6 | CN(C)CCCn1c2c(c3cnccc3c1=O)C(=O)c1ccccc1-2 | 3.73 | 1.46 | 1.75 | 0.793 | 5.95 | 8.43 | 4.65 | 3.21 | 7.24 | 7.24 | 0.55 | 0.309 | 0.39 | 0.095 | 1.17 | 1.2 | 0.514 | 0.486 | 0.312 | 0.62
7 | Cc1ccc(C(CN(C)C)C(=O)c2ccccc2)cc1 (stereo not drawn) | 26.7 | 4.33 | 21.9 | 6.47 | 28.6 | 3.75 | 5.24 | 19.2 | 3.52 | 13 | 10.5 | 1.85 | 7.38 | 1.03 | 13.5 | 1.7 | 2.19 | 5.74 | 1.8 | 3.13
8 | CC1=C(/C=C/C(C)=C\C=C\C(C)=C\C(=O)Nc2ccc3c(c2)OCO3)C(C)(C)CCC1 | > 100 | > 100 | > 100 | 47.7 | > 100 | > 100 | 18 | > 100 | > 100 | > 100 | 17.7 | > 100 | 50.5 | 11.3 | > 100 | 98.5 | 1.65 | 29.4 | 14.1 | > 100
9 | C=C1[C@@H](C)[C@H]2[C@H](Cc3ccccc3)NC(=O)[C@]23OC(=O)/C=C/[C@H](O)CCC[C@@H](C)C/C=C/[C@H]3[C@@H]1O | 89.7 | 66.2 | 57.8 | > 100 | 16.5 | > 64.3 | 90 | 59.9 | > 92.2 | 73.6 |  |  |  |  |  |  |  |  |  | 

— PubChem BioAssay (NCI)
